The assay concerns Nrf2 transcriptional activity (pARE-Luc reporter) in HepG2 cells. In words: In vitro Nrf2 transcriptional activity measurement by ARE-dependent reporter assay in HepG2 cell. In kind it is cell-based, human. The following applies: Homo sapiens; HepG2 cells transfected with pARE-Luc, 4 hours at 37° C.; luciferase activity of Example 1-54 or Example 17-23 at 3.75 μM defined as 100%. The essentials:
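Luminescence readout (Bright-Glo) after 4 h, 37° C compound exposure of HepG2 cells carrying the ARE-luciferase vector pGL4.37. Each well converted to % response versus reference compound at 3.75 μM, and EC50 derived from dose-response curves.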
In turn, `O=C(O)c1cc(F)c(-c2cccc3c2OCN(C(=O)c2c(Cl)cc(N4CC5(CCN(C6COC6)C5)C4)cc2Cl)C3)cc1N1C2CCC1COC2` [Compound 10-2, 4-[3-[2,6-Dichloro-4-[7-(oxetan-3-yl)-2,7-diazaspiro[3.4]octan-2-yl]benzoyl]-2,4-dihydro-1,3-benzoxazin-8-yl]-5-fluoro-2-(3-oxa-8-azabicyclo[3.2.1]octan-8-yl)benzoic acid] came in with an EC50 of 5.2 nM. The result for `C[C@@H]1CN(c2cc(Cl)c(C(=O)N3COc4c(cccc4-c4cc(N5C6CCC5COC6)c(C(=O)O)cc4F)C3)c(Cl)c2)CCN1C` [Compound 10-3, 4-[3-[2,6-Dichloro-4-[(3R)-3,4-dimethylpiperazin-1-yl]benzoyl]-2,4-dihydro-1,3-benzoxazin-8-yl]-5-fluoro-2-(3-oxa-8-azabicyclo[3.2.1]octan-8-yl)benzoic acid] reads 1.5 nM; that for `C[C@@H]1CN(c2cc(Cl)c(C(=O)N3COc4c(cccc4-c4cc(N5C6CCC5COC6)c(C(=O)O)cc4F)C3)c(Cl)c2)C[C@H](C)N1C` [Compound 10-4], 4.8 nM. For `C[C@H]1CN(c2cc(Cl)c(C(=O)N3COc4c(cccc4-c4cc(N5C6CCC5COC6)c(C(=O)O)cc4F)C3)c(Cl)c2)CCN1C` [Compound 10-5, 4-[3-[2,6-Dichloro-4-[(3S)-3,4-dimethylpiperazin-1-yl]benzoyl]-2,4-dihydro-1,3-benzoxazin-8-yl]-5-fluoro-2-(3-oxa-8-azabicyclo[3.2.1]octan-8-yl)benzoic acid] the value was 4.3 nM.

In turn, `CN1CCN(c2cc(Cl)c(C(=O)N3COc4c(cccc4-c4cc(N5C6CCC5COC6)c(C(=O)O)cc4F)C3)c(Cl)c2)CC1(C)C` [Compound 10-6, 4-[3-[2,6-Dichloro-4-(3,3,4-trimethylpiperazin-1-yl)benzoyl]-2,4-dihydro-1,3-benzoxazin-8-yl]-5-fluoro-2-(3-oxa-8-azabicyclo[3.2.1]octan-8-yl)benzoic acid] came in with an EC50 of 9.1 nM. For `O=C(O)c1cc(F)c(-c2cccc3c2OCN(C(=O)c2c(Cl)cc(N4C[C@@H]5C[C@H]4CN5C4COC4)cc2Cl)C3)cc1N1C2CCC1COC2` [Compound 10-7, 4-[3-[2,6-Dichloro-4-[(1S,4S)-5-(oxetan-3-yl)-2,5-diazabicyclo[2.2.1]heptan-2-yl]benzoyl]-2,4-dihydro-1,3-benzoxazin-8-yl]-5-fluoro-2-(3-oxa-8-azabicyclo[3.2.1]octan-8-yl)benzoic acid] the value was 23 nM. For `C[C@@H]1CN(c2cc(Cl)c(C(=O)N3COc4c(cccc4-c4cc(N5C6CCC5COC6)c(C(=O)O)cc4F)C3)c(Cl)c2)CCN1C1COC1` [Compound 10-8, 4-[3-[2,6-Dichloro-4-[(3R)-3-methyl-4-(oxetan-3-yl)piperazin-1-yl]benzoyl]-2,4-dihydro-1,3-benzoxazin-8-yl]-5-fluoro-2-(3-oxa-8-azabicyclo[3.2.1]octan-8-yl)benzoic acid] the value was 1.5 nM; for `O=C(O)c1cc(F)c(-c2cccc3c2OCN(C(=O)c2c(Cl)cc(N4CCCN(C5COC5)CC4)cc2Cl)C3)cc1N1CCOCC1` [Compound 10-9, 4-[3-[2,6-Dichloro-4-[4-(oxetan-3-yl)-1,4-diazepan-1-yl]benzoyl]-2,4-dihydro-1,3-benzoxazin-8-yl]-5-fluoro-2-morpholin-4-ylbenzoic acid], 1.2 nM. The result for `CN1C[C@@H]2C[C@H]1CN2c1cc(Cl)c(C(=O)N2COc3c(cccc3-c3cc(N4C5CCC4COC5)c(C(=O)O)cc3F)C2)c(Cl)c1` [Compound 10-10, 4-[3-[2,6-Dichloro-4-[(1S,4S)-5-methyl-2,5-diazabicyclo[2.2.1]heptan-2-yl]benzoyl]-2,4-dihydro-1,3-benzoxazin-8-yl]-5-fluoro-2-(3-oxa-8-azabicyclo[3.2.1]octan-8-yl)benzoic acid] reads 25 nM; that for `O=C(O)c1cc(F)c(-c2cccc3c2OCN(C(=O)c2c(Cl)cc(N4CC5(C4)CN(C4COC4)C5)cc2Cl)C3)cc1N1CCOCC1` [Compound 10-11, 4-[3-[2,6-Dichloro-4-[2-(oxetan-3-yl)-2,6-diazaspiro[3.3]heptan-6-yl]benzoyl]-2,4-dihydro-1,3-benzoxazin-8-yl]-5-fluoro-2-morpholin-4-ylbenzoic acid], 2.4 nM.

`CN1CC2(C1)CN(c1cc(Cl)c(C(=O)N3COc4c(cccc4-c4cc(N5CCOCC5)c(C(=O)O)cc4F)C3)c(Cl)c1)C2` [Compound 10-12, 4-[3-[2,6-Dichloro-4-(6-methyl-2,6-diazaspiro[3.3]heptan-2-yl)benzoyl]-2,4-dihydro-1,3-benzoxazin-8-yl]-5-fluoro-2-morpholin-4-ylbenzoic acid] gave an EC50 of 1.2 nM. The result for `CC(C)N1CCC(Oc2cc(Cl)c(C(=O)N3COc4c(cccc4-c4ccc(C(=O)O)c(N5CCOCC5)c4)C3)c(Cl)c2)CC1` [Compound 10-13, 4-[3-[2,6-Dichloro-4-(1-propan-2-ylpiperidin-4-yl)oxybenzoyl]-2,4-dihydro-1,3-benzoxazin-8-yl]-2-morpholin-4-ylbenzoic acid] reads 4.2 nM; that for `COC1CN(C2CC3(C2)CN(c2cc(Cl)c(C(=O)N4COc5c(cccc5-c5cc(N6C7CCC6COC7)c(C(=O)O)cc5F)C4)c(Cl)c2)C3)C1` [Compound 11-1, 4-[3-[2,6-Dichloro-4-[6-(3-methoxyazetidin-1-yl)-2-azaspiro [3.3]heptan-2-yl]benzoyl]-2,4-dihydro-1,3-benzoxazin-8-yl]-5-fluoro-2-(3-oxa-8-azabicyclo [3.2.1]octan-8-yl)benzoic acid], 3.6 nM. In turn, `COC1(C)CN(C2CN(c3cc(Cl)c(C(=O)N4COc5c(cccc5-c5cc(N6C7CCC6COC7)c(C(=O)O)cc5F)C4)c(Cl)c3)C2)C1` [Compound 11-2, 4-[3-[2,6-Dichloro-4-[3-(3-methoxy-3-methylazetidin-1-yl)azetidin-1-yl]benzoyl]-2,4-dihydro-1,3-benzoxazin-8-yl]-5-fluoro-2-(3-oxa-8-azabicyclo [3.2.1]octan-8-yl)benzoic acid] displayed an EC50 of 4.2 nM.

With `O=C(O)c1cc(F)c(-c2cccc3c2OCN(C(=O)c2c(Cl)cc(N4CC(n5cccn5)C4)cc2Cl)C3)cc1N1C2CCC1COC2` [Compound 11-3, 4-[3-[2,6-Dichloro-4-(3-pyrazol-1-ylazetidin-1-yl)benzoyl]-2,4-dihydro-1,3-benzoxazin-8-yl]-5-fluoro-2-(3-oxa-8-azabicyclo[3.2.1]octan-8-yl)benzoic acid], the EC50 is 9.5 nM. For `O=C(O)c1cc(F)c(-c2cccc3c2OCN(C(=O)c2c(Cl)cc(N4CC(N5CC(OC(F)F)C5)C4)cc2Cl)C3)cc1N1C2CCC1COC2` [Compound 11-4, 4-[3-[2,6-Dichloro-4-[3-[3-(difluoromethoxy)azetidin-1-yl]azetidin-1-yl]benzoyl]-2,4-dihydro-1,3-benzoxazin-8-yl]-5-fluoro-2-(3-oxa-8-azabicyclo[3.2.1]octan-8-yl)benzoic acid] the value was 2 nM.

`COC1CN(C2(C)CN(c3cc(Cl)c(C(=O)N4COc5c(cccc5-c5cc(N6C7CCC6COC7)c(C(=O)O)cc5F)C4)c(Cl)c3)C2)C1` [Compound 11-5, 4-[3-[2,6-Dichloro-4-[3-(3-methoxyazetidin-1-yl)-3-methylazetidin-1-yl]benzoyl]-2,4-dihydro-1,3-benzoxazin-8-yl]-5-fluoro-2-(3-oxa-8-azabicyclo[3.2.1]octan-8-yl)benzoic acid] registered an EC50 of 2 nM. For `CC1(N2CCOCC2)CN(c2cc(Cl)c(C(=O)N3COc4c(cccc4-c4cc(N5C6CCC5COC6)c(C(=O)O)cc4F)C3)c(Cl)c2)C1` [Compound 11-6, 4-[3-[2,6-Dichloro-4-(3-methyl-3-morpholin-4-ylazetidin-1-yl)benzoyl]-2,4-dihydro-1,3-benzoxazin-8-yl]-5-fluoro-2-(3-oxa-8-azabicyclo[3.2.1]octan-8-yl)benzoic acid] the value was 2.4 nM. The result for `O=C(O)c1cc(F)c(-c2cccc3c2OCN(C(=O)c2c(Cl)cc(N4CC(N5CC(OC(F)(F)F)C5)C4)cc2Cl)C3)cc1N1C2CCC1COC2` [Compound 11-7, 4-[3-[2,6-Dichloro-4-[3-[3-(trifluoromethoxy)azetidin-1-yl]azetidin-1-yl]benzoyl]-2,4-dihydro-1,3-benzoxazin-8-yl]-5-fluoro-2-(3-oxa-8-azabicyclo [3.2.1]octan-8-yl)benzoic acid] reads 5.2 nM.

`O=C(O)c1cc(F)c(-c2cccc3c2OCN(C(=O)c2c(Cl)cc(N4CC(N5CC(F)(F)C5)C4)cc2Cl)C3)cc1N1C2CCC1COC2` [Compound 11-8, 4-[3-[2,6-Dichloro-4-[3-(3,3-difluoroazetidin-1-yl)azetidin-1-yl]benzoyl]-2,4-dihydro-1,3-benzoxazin-8-yl]-5-fluoro-2-(3-oxa-8-azabicyclo[3.2.1]octan-8-yl)benzoic acid]: the EC50 amounted to 3.1 nM. The result for `O=C(O)c1cc(F)c(-c2cccc3c2OCN(C(=O)c2c(Cl)cc(N4CC(N5CC(F)C5)C4)cc2Cl)C3)cc1N1C2CCC1COC2` [Compound 11-9, 4-[3-[2,6-Dichloro-4-[3-(3-fluoroazetidin-1-yl)azetidin-1-yl]benzoyl]-2,4-dihydro-1,3-benzoxazin-8-yl]-5-fluoro-2-(3-oxa-8-azabicyclo[3.2.1]octan-8-yl)benzoic acid] reads 2.7 nM. For `O=C(O)c1cc(F)c(-c2cccc3c2OCN(C(=O)c2c(Cl)cc(N4CC5(CC(OC6CC6)C5)C4)cc2Cl)C3)cc1N1C2CCC1COC2` [Compound 11-10, 4-[3-[2,6-Dichloro-4-(6-cyclopropyloxy-2-azaspiro[3.3]heptan-2-yl)benzoyl]-2,4-dihydro-1,3-benzoxazin-8-yl]-5-fluoro-2-(3-oxa-8-azabicyclo[3.2.1]octan-8-yl)benzoic acid] the value was 3.8 nM. The result for `CN(Cc1ccon1)c1cc(-c2cccc3c2OCN(C(=O)c2c(Cl)cc(-c4cnn(C)c4)cc2Cl)C3)c(F)cc1C(=O)O` [Compound 12-1, 4-[3-[2,6-Dichloro-4-(1-methylpyrazol-4-yl)benzoyl]-2,4-dihydro-1,3-benzoxazin-8-yl]-5-fluoro-2-[methyl(1,2-oxazol-3-ylmethyl)amino] benzoic acid] reads 11 nM.

As a reminder, the EC50 is the concentration at which the effect is half-maximal. Higher therefore signals weaker potency.

For the origin of these results see patent US20250171457A1, “NITROGEN-CONTAINING HETEROCYCLIC COMPOUND HAVING NRF2 ACTIVATION EFFECT” (CHUGAI SEIYAKU KABUSHIKI KAISHA, priority 2022, published 2025).
